Experimental data from patent publication US6043283A, “Tyramine compounds and their neuronal effects” (priority 1997, dated 2000).
“Also recorded” adds a separate entry of the source. Where two headings read alike, the source gives them in different places. Ends that are not written are not given here.

Legend:
[1] = system: NTox released by Aβ1-42-stimulated microglia (neuron killing); assay: cells; assay type: cell-based, rat; settings: for neuroprotective effect: Aβ1-42-stimulated microglia; for protective effect: 10 μM, 72 hours, FIG. 30
Excerpt: . Briefly, hippocampal cells obtained from embryonic stage 18 rat fetuses were dispersed mechanically in the presence of 0.125% trypsin and plated onto poly-L-lysine coated glass coverslips in 24 well plates at 250,000 cells per well (resulting in adhering cell densities of about 1250 cells per mm^2) in chemically-defined N2 culture media containing 5% fetal bovine serum. Gradual reduction of serum began on day 10 in vitro with daily 1:1 volume replacements with chemically-defined media, until a final concentration of 0.6% serum was achieved. […]; see FIG. 18). In order to eliminate microglia, cultures were exposed to saporin (sap; a ribosome-inactivating protein; Davis and Wiley, 1989) coupled to acetylated LDL (ac-LDL) at a concentration of 10 μg/ml for 12 hours. […] Cultures depleted of microglia were then exposed to test substances in the presence or absence of exogenous microglia (100,000 cells per culture). […]. Controls included cultures without saporin-treatment, cultures without test substances, and cultures with test substances but lacking microglia.
(§1) On day 14 of culture, immediately following saporin treatment, test substances were added to the hippocampal cultures. Synthetic peptide were supplied as 1 mM stock solutions in 0.1 M phosphate buffered saline, pH 7.2, stored for at least 1 week at 4° C. before use. After 72 hours incubation, the cultures were fixed in 4% paraformaldehyde at room temperature for 18 hours and immuno-stained by overnight incubation with a mixture of anti-neurofilament antibodies (NF; SMI-311, 1:600; Stemberger Monoclonals, Inc.) plus anti-MAP-2 (Boehringer Mannheim, 184959; 1:600) at 4° C. in the presence of 2% horse serum and 0.3% triton X-100 to delineate both neuronal cell bodies and neurites. Astroglia were visualized using sheep anti-glial fibrillary acidic protein (GFAP, Sigma) as described by Giulian et al., 1989. Finally, to label all cell nuclei, the coverslips were exposed to 0.01% bisbenzimide (Hoechst 33258; Sigma) in PBS, pH 6.9, and rinsed in distilled water and mounted in glycerin. Immuno-labeled cells per field and nuclei per field were scored at 200X magnification using fluorescence microscopy. Data were expressed as % mean survival expressed in terms of parallel untreated control cultures after scoring at least 20 randomly selected fields for each of 3 coverslips.
The procedures described above and by Giulian et al, 1996, provided for the identification of tyramine compounds as therapeutic agents for neurodegenerative diseases or disorders including, for example, Alzheimer's disease. Cells from the brain of fetal rats were grown in tissue cultures. Microglial populations within the cultures were controlled following the method described in Example 5 above. Known amounts of Aβ peptides coupled to microspheres were added to the culture. The Aβ spheres stimulated the microglia to release NTox, which in turn destroyed the neurons. The neurons in the cultures were monitored for survival by immuno-staining.
Generally, drug assays involve the addition of known concentrations of a test agent over a range of concentrations. After 72 hours, the experiment is stopped and the neurons are identified by immuno-staining. The data is expressed as % neuronal survival […]. Dose response curves are then used to estimate Effective Dose50 % (ED50) of neuroprotective agents. […].
In this experiment, about 65% of the neurons were destroyed by the Aβ-stimulated microglia. […] Other tyramine compounds, including tyrosine esters, were neuroprotective (FIG. 30).
Following the methods described herein, numerous compounds were examined to determine their neuroprotective activity. […]

[2] = system: Aβ1-42-stimulated microglia; assay type: cell-based, rat; settings: for effect of signal transduction inhibitors on microglia stimulated by Aβ1-42: 0.01 to 100 μM, FIG. 11
Excerpt: Briefly, hippocampal cells obtained from embryonic stage 18 rat fetuses were dispersed mechanically in the presence of 0.125% trypsin and plated onto poly-L-lysine coated glass coverslips in 24 well plates at 250,000 cells per well (resulting in adhering cell densities of about 1250 cells per mm^2) in chemically-defined N2 culture media containing 5% fetal bovine serum. Gradual reduction of serum began on day 10 in vitro with daily 1:1 volume replacements with chemically-defined media, until a final concentration of 0.6% serum was achieved. […] In order to eliminate microglia, cultures were exposed to saporin (sap; a ribosome-inactivating protein; Davis and Wiley, 1989) coupled to acetylated LDL (ac-LDL) at a concentration of 10 μg/ml for 12 hours. […] Cultures depleted of microglia were then exposed to test substances in the presence or absence of exogenous microglia (100,000 cells per culture). […] Controls included cultures without saporin-treatment, cultures without test substances, and cultures with test substances but lacking microglia.
as §1

[3] = system: human microglia stimulated with S5; assay type: cell-based;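 note: drugs applied at 10 µM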
microglia = assay: inhibition of SpheresAβ1-42 binding to microglia; parameters: species or system rat; settings: for inhibition of SpheresAβ1-42 binding by peptides: 10 μmoles/l, 4 hours, 37° C.; for inhibition of SpheresAβ1-42 binding by GAGs and scavenger receptor ligands: heparin sulfate 50 μg/ml, dextran sulfate 500 μg/ml, ac-LDL 200 μg/ml
Description: Spheresmal-BSA (which bind to scavenger receptors) or SpheresAβ1-42 were incubated with microglia for 4 hours following pre-treatment of cells with trypsin (5000 units/ml at 37° C. for 60 min followed by inactivation with soybean trypsin inhibitor), with heparinase (heparin lyase EC 4.2.2.7; two consecutive treatments each of 0.01 units/ml for 60 min), or with chondroitinase ABC (chondroitin ABC lyase EC 4.3.3.4; two consecutive treatments each of 0.02 units/ml for 60 min). […] Microglia mixed with hippocampal neurons were treated with combinations of β-D-xyloside (1 mm), heparinase (0.02 units/ml), or chondroitinase (0.04 units/ml) and then exposed to plaques.
Each well then received 250,000 SpheresAβ1-42 or Spheresmal-BSA in the presence or absence of Aβ peptides, GAGs, or scavenger receptor ligands. Binding assays were carried out at 37° C. for 4 hours after which coverslips were dipped 10 times in phosphate buffer and fixed with 4% buffered paraformaldehyde. Microsphere adherence to cells was scored at 200 magnification with phase/fluorescence microscopy. Data, expressed as % inhibition of sphere binding, was calculated from total number of spheres per field noted for control cultures receiving spheres only. Values are based upon at least 3 coverslips from 2 independent experiments. […] Washed spheres were resuspended in 0.2 M borate buffer (pH 8.5) in the presence of 300 μg Aβ or 400 μg BSA in 6% DMSO. After overnight mixing at room temperature, the spheres were washed extensively and blocked by 1 M glycine (pH 8.0) for 30 minutes.

[4] = system: rat microglia / hippocampal neurons; settings: rat microglia; mostly 1 μmole/l
rat microglia = assay: binding of Aβ-coupled microspheres to microglia; settings: 4 hours at 37° C. (72 h in FIG. 23)

CCCCOc1ccc(O)cc1 [4-butoxyphenol]
neuroprotective activity (structure/function) ([1]; Example 14): little or no neuroprotective activity

NC(Cc1cc(O)c(O)cc1O)C(=O)O (stereo not drawn) [6--OH DOPA]
neuroprotective activity (structure/function) ([1]; Example 14): little or no neuroprotective activity

NCCc1cc(O)c(O)cc1O [6--OH dopamine]
neuroprotective activity (structure/function) ([1]; Example 14): little or no neuroprotective activity

NC(CCCCCP(=O)(O)O)C(=O)O (stereo not drawn) [AP7]
drug blockade of neuron killing, rat microglia [2]: prevented neuronal loss; also recorded: blocked neuron death | drug blockade of neuron killing, human microglia [3]: blocked neuron death

N[C@@H](Cc1ccc(O)c(O)c1)C(=O)O [DOPA]
neuroprotective activity (structure/function) ([1]; Example 14): little or no neuroprotective activity

CC(=O)NCCc1ccc(O)cc1 [acetylated tyramine]
neuroprotective activity (structure/function) [1]: little or no neuroprotective activity

CCN(CC)CCCC(C)Nc1ccnc2cc(Cl)ccc12 (stereo not drawn) [chloroquine]
effect of immunosuppressive drugs on microglia stimulated by Aβ1-42 ([2]; 0.1 to 10 μM, FIG. 10): had a protective effect; also recorded: inhibit neuron killing

COc1c(C=O)c(O)cc2c1C(=O)c1ccccc1C2=O [damacanthal]
effect of signal transduction inhibitors on microglia stimulated by Aβ1-42 [2]: had a protective effect

CC(C)(C)OC(=O)[C@@H](N)Cc1cc(I)c(O)c(I)c1 [di-iodinated tyrosine t-butyl ester]
neuroprotective effect [1]: have neuroprotective effects | neuroprotective activity (structure/function) ([1]; Example 14): enhance neuroprotective effects

NCCc1ccc(O)c(O)c1 [dopamine]
neuroprotective activity (structure/function) [1]: little or no neuroprotective activity

CN[C@@H](C)[C@H](O)c1ccccc1 [ephedrine]
neuroprotective activity (structure/function) ([1]; Example 14): little or no neuroprotective activity

CNC[C@H](O)c1ccc(O)c(O)c1 [epinephrine]
neuroprotective activity (structure/function) [1]: little or no neuroprotective activity

O=c1c(-c2ccc(O)cc2)coc2cc(O)cc(O)c12 [genistein]
effect of signal transduction inhibitors on microglia stimulated by Aβ1-42 [2]: had a protective effect

CC(C)(C)OC(=O)[C@@H](N)Cc1ccc(O)c(I)c1 [mono-iodinated tyrosine t-butyl ester]
neuroprotective effect [1]: have neuroprotective effects | neuroprotective activity (structure/function) ([1]; Example 14): enhance neuroprotective effects

NC[C@H](O)c1ccc(O)c(O)c1 [norepinephrine]
neuroprotective activity (structure/function) ([1]; Example 14): little or no neuroprotective activity

NCCc1ccccc1 [phenethylamine]
neuroprotective activity (structure/function) ([1]; Example 14): little or no neuroprotective activity

Nc1ccccc1N [phenylenediamine]
neuroprotective activity (structure/function) ([1]; Example 14): little or no neuroprotective activity

Oc1cccc(O)c1 [resorcinol]
neuroprotective activity (structure/function) ([1]; Example 14): little or no neuroprotective activity

NC(=O)[C@@H](N)Cc1ccc(O)cc1 [tyrosinamide]
neuroprotective activity (structure/function) ([1]; Example 14): little or no neuroprotective activity

C=CCOC(=O)[C@@H](N)Cc1ccc(O)cc1 [tyrosine allyl ester]
protective effect [1]: neuron survival was markedly enhanced | neuroprotective activity (structure/function) ([1]; Example 14): enhance neuroprotective effects

CCOC(=O)[C@@H](N)Cc1ccc(O)cc1 [tyrosine ethyl ester]
neuroprotective activity (structure/function) ([1]; Example 14): little or no neuroprotective activity

NNC(=O)[C@@H](N)Cc1ccc(O)cc1 [tyrosine hydrazide]
neuroprotective activity (structure/function) ([1]; Example 14): little or no neuroprotective activity

COC(=O)[C@@H](N)Cc1ccc(O)cc1 [tyrosine methyl ester]
neuroprotective activity (structure/function) ([1]; Example 14): little or no neuroprotective activity

N[C@@H](Cc1ccc(O)cc1)C(=O)Nc1ccc2ccccc2c1 [tyrosine β-naphthylamide]
neuroprotective activity (structure/function) ([1]; Example 14): enhance neuroprotective effects

N[C@@H](Cc1ccc(O)cc1)C(=O)O [tyrosine]
protective effect [1]: no protective effect | neuroprotective activity (structure/function) ([1]; Example 14): little or no neuroprotective activity

Aβ1-42Gln13Gln14: synthetic peptide Aβ1-42Gln13Gln14
inhibition of SpheresAβ1-42 binding by peptides (microglia): unable to block | induction of neurotoxic microglia / neuron killing [4]: unable to elicit neurotoxic responses

Aβ10-42: Aβ peptide residues 10-42 (YEVHHQKLVFFAEDVGSNKGAIIGLMVGGVVIA; Amyloid-beta protein 42; UniProt P05067 681-713, looked up, fragment)
binding of peptide-coupled microspheres to microglia (rat microglia): bound to microglia

Aβ17-43-microspheres: Aβ17-43 coupled to fluorescent microspheres (LVFFAEDVGSNKGAIIGLMVGGVVIAT; also: coupled to fluorescent microspheres; UniProt P05067 688-714, looked up, fragment)
binding of peptide-coupled microspheres to microglia (rat microglia): no consistent association with microglia | binding of peptide-coupled microspheres to microglia (rat microglia; listed as Aβ17-43 coupled microspheres): not engulfed by microglia

Aβ36-42: Aβ peptide residues 36-42 (VGGVVIA; Amyloid-beta protein 42; UniProt P05067 707-713, looked up, fragment)
blocking of Aβ1-42 induced microglial neurotoxicity by peptides ([2]; 10 μmoles/liter peptide, 1 μmole/liter Aβ1-42): did not | inhibition of SpheresAβ1-42 binding by peptides (microglia): did not | binding of peptide-coupled microspheres to microglia (rat microglia): little cell binding

chondroitin sulfate
inhibition of SpheresAβ1-42 binding by GAGs and scavenger receptor ligands (microglia): only heparin sulfate blocked; also recorded: not similar compounds

heparin sulfate
inhibition of SpheresAβ1-42 binding by GAGs and scavenger receptor ligands (microglia): blocked; also recorded: reduction of binding | inhibition of SpheresAβ1-42 binding by GAGs and scavenger receptor ligands (microglia; listed as heparan sulfate): block Aβ binding to microglia

tyrosine butyl ester
protective effect [1]: neuron survival was markedly enhanced
